The results in this text go back to ChEMBL document CHEMBL1143045, “Tricyclic isoxazolines: identification of R226161 as a potential new antidepressant that combines potent serotonin reuptake inhibition and alpha2-adrenoceptor antagonism” (Bioorg Med Chem, 2007).

Each structure is given as a SMILES string. Calls of active or inactive are those of the source. No cut-off for these calls is given here.

For test [1], the target named is T1, Adrenergic receptor alpha-2 (Rattus norvegicus) (UniProt P22086+P19328+P22909). Briefly: Reversal of medetomidine-induced loss of righting reflex in sc dosed Wistar rat after 1hr. Type of test: functional, organism-based.
For test [2], the target named is Sodium-dependent serotonin transporter (Rattus norvegicus) (UniProt P31652). Briefly: Antagonism of p-chloroamphetamine-induced excitation in sc dosed Wistar rat after 1 hr. The test is classed as functional, organism-based.
For test [3], the target named is T2, Alpha-2A adrenergic receptor (Homo sapiens, UniProt P08913).
T2 sequence (P08913 whole entry): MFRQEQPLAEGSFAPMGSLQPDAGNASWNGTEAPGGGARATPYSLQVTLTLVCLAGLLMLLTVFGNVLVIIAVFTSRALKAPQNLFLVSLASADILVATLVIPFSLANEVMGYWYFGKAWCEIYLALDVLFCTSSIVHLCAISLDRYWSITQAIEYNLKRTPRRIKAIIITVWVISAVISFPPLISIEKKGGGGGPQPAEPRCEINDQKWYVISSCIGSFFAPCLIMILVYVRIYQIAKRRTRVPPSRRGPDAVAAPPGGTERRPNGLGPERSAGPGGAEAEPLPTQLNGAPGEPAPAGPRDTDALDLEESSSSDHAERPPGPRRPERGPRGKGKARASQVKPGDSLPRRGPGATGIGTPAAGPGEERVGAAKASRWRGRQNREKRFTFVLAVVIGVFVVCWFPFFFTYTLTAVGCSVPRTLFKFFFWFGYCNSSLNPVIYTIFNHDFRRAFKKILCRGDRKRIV
Briefly: Displacement of [3H]rawolscine from human cloned adrenergic alpha2A receptor transfected in CHO cells. The test is classed as cell-based. A general note: Loss of bound radioactivity is the signal in a displacement assay; it reports binding, not function.

In test [4] the target is T3, Alpha-2C adrenergic receptor (Homo sapiens, UniProt P18825).
T3 sequence (P18825 whole entry): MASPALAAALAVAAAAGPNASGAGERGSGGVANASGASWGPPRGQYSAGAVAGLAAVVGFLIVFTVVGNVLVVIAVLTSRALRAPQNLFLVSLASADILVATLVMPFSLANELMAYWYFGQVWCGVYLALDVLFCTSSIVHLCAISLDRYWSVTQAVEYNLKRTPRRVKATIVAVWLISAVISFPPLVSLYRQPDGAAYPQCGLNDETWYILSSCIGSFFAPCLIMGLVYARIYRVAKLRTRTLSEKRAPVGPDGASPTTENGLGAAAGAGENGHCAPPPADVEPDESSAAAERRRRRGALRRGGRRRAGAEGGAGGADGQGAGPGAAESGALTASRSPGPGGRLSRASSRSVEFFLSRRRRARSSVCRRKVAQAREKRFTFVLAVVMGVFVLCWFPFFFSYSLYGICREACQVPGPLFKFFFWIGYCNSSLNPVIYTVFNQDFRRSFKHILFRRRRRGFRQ
Briefly: Displacement of [3H]rawolscine from human cloned adrenergic Alpha-2C receptor transfected in CHO cells. Type of test: cell-based.

For test [5], the target named is T4, Alpha-2B adrenergic receptor (Homo sapiens, UniProt P18089).
T4 sequence (P18089 whole entry): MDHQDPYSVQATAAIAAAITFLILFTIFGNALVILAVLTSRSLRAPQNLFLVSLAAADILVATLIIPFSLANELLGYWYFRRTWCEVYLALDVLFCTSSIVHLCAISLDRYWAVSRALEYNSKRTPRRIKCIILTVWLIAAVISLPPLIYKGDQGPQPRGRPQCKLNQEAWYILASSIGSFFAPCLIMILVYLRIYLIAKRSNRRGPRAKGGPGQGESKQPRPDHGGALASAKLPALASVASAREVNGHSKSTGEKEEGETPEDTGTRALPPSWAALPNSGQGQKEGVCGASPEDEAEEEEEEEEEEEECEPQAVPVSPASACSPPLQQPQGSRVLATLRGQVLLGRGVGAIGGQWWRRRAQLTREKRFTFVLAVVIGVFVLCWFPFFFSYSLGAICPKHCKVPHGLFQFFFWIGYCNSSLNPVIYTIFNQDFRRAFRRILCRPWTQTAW
Briefly: Displacement of [3H]rawolscine from human cloned adrenergic alpha-2B receptor transfected in CHO cells. Type of test: cell-based.

For test [6], the target named is T1, Adrenergic receptor alpha-2 (Rattus norvegicus). Briefly: Reversal of medetomidine-induced loss of righting reflex in sc dosed Wistar rat after 8 hrs. Type of test: functional, organism-based.
Test [7] has the same target. Briefly: Receptor occupancy ex vivo by displacement of [3H]idazoxan binding from alpha-2 adrenoceptor in sc dosed Wistar rat entorhinal cortex after 1 hr. The test is classed as functional, organism-based.
For test [8] the target is unchanged. Briefly: Reversal of medetomidine-induced loss of righting reflex in sc dosed Wistar rat after 32 hrs. Type of test: functional, organism-based.
Test [9] shares this target. Briefly: Reversal of medetomidine-induced loss of righting reflex in po dosed Wistar rat after 2 hrs. The test is classed as functional, organism-based.
Test [10] shares this target. Briefly: Reversal of medetomidine-induced loss of righting reflex in sc dosed Wistar rat after 16 hrs. The test is classed as functional, organism-based.
Test [11] shares this target. Briefly: Reversal of medetomidine-induced loss of righting reflex in po dosed Wistar rat after 1 hr. The test is classed as functional, organism-based.
Test [12] has the same target. Briefly: Reversal of medetomidine-induced loss of righting reflex in sc dosed Wistar rat after 0.5 hrs. The test is classed as functional, organism-based.
For test [13] the target is unchanged. Briefly: Reversal of medetomidine-induced loss of righting reflex in po dosed Wistar rat after 16 hrs. Type of test: functional, organism-based.
For test [14] the target is unchanged. Briefly: Reversal of medetomidine-induced loss of righting reflex in po dosed Wistar rat after 1hr. Type of test: functional, organism-based.
The target of test [15] is T5, Alpha-2C adrenergic receptor (Homo sapiens) (UniProt P18825).
T5 sequence (whole entry): T3 sequence (P18825 whole entry)
Briefly: Agonist activity at human adrenergic Alpha-2C receptor transfected in CHO cells by [35S]GTPgammaS binding assay. The test is classed as functional, cell-based. Background: Binding of GTPγS marks nucleotide exchange on a G protein.

Test [16] has as its target T1, Adrenergic receptor alpha-2 (Rattus norvegicus). Briefly: Reversal of medetomidine-induced loss of righting reflex in po dosed Wistar rat after 8 hrs. Type of test: functional, organism-based.
Test [17] has the same target. Briefly: Reversal of medetomidine-induced loss of righting reflex in po dosed Wistar rat after 4 hrs. Type of test: functional, organism-based.
The target is the same in test [18]. Briefly: Reversal of medetomidine-induced loss of righting reflex in sc dosed Wistar rat after 4 hrs. Type of test: functional, organism-based.
Test [19] has the same target. Briefly: Receptor occupancy ex vivo by displacement of [3H]idazoxan binding from alpha-2 adrenoceptor in po dosed Wistar rat entorhinal cortex after 1 hr. Type of test: functional, organism-based.
The target of test [20] is T6, Alpha-2B adrenergic receptor (Homo sapiens) (UniProt P18089).
T6 sequence (whole entry): T4 sequence (P18089 whole entry)
Briefly: Agonist activity at human adrenergic alpha-2B receptor transfected in CHO cells by [35S]GTPgammaS binding assay. Type of test: functional, cell-based.

In test [21] the target is T1, Adrenergic receptor alpha-2 (Rattus norvegicus). Briefly: Reversal of medetomidine-induced loss of righting reflex in sc dosed Wistar rat after 1 hr. The test is classed as functional, organism-based.
For test [22], the target named is T6, Alpha-2B adrenergic receptor (Homo sapiens). Briefly: Antagonist activity at human alpha-2B receptor transfected in CHO cells by [35S]GTPgammaS binding assay. Type of test: functional, cell-based.
Test [23] concerns the target T1, Adrenergic receptor alpha-2 (Rattus norvegicus). Briefly: Reversal of medetomidine-induced loss of righting reflex in po dosed Wistar rat after 0.5 hrs. The test is classed as functional, organism-based.
Test [24] has as its target T5, Alpha-2C adrenergic receptor (Homo sapiens). Briefly: Antagonist activity at human alpha-2C receptor transfected in CHO cells by [35S]GTPgammaS binding assay. The test is classed as functional, cell-based.
The target of test [25] is T1, Adrenergic receptor alpha-2 (Rattus norvegicus). Briefly: Reversal of medetomidine-induced loss of righting reflex in sc dosed Wistar rat after 2 hrs. The test is classed as functional, organism-based.
Test [26] has as its target Sodium-dependent serotonin transporter (Rattus norvegicus) (UniProt P31652). Briefly: Antagonism of p-chloroamphetamine-induced excitation in po dosed Wistar rat after 1 hr. Type of test: functional, organism-based.
Test [27] shares this target. Briefly: Antagonism of p-chloroamphetamine-induced 5HT depletion in sc dosed Wistar rat prefrontal cortex after 1 hr. Type of test: functional, organism-based.
In test [28] the target is Sodium-dependent dopamine transporter (Rattus norvegicus, UniProt P23977). Briefly: Displacement of [3H]WIN-35428 from rat DAT.
In test [29] the target is T7, Alpha-1A adrenergic receptor (Homo sapiens, UniProt P35348).
T7 sequence (P35348 whole entry): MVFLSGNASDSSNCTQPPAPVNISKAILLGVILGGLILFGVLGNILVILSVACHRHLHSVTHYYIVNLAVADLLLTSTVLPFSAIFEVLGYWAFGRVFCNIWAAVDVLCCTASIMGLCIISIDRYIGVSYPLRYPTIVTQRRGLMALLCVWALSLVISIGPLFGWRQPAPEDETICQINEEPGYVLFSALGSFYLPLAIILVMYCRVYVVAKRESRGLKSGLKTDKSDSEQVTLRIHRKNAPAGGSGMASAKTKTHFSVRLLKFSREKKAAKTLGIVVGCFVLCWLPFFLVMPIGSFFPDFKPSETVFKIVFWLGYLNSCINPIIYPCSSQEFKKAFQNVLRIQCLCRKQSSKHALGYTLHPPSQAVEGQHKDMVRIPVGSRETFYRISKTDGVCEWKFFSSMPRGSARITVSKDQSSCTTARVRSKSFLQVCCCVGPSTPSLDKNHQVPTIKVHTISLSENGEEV
Briefly: Displacement of [3H]prazosin from human cloned alpha-1A receptor.

In test [30] the target is Norepinephrine transporter (Rattus norvegicus, UniProt Q9WTR4). Briefly: Displacement of [3H]nisoxetine from rat NET.
For another test, the target named is Substance-P receptor (Homo sapiens, UniProt P25103). Briefly: Displacement of [3H]substance P from human cloned NK1 receptor.
The target of another test is D(3) dopamine receptor (Homo sapiens, UniProt P35462). Briefly: Displacement of [125I]iodosulpiride from human cloned dopamine D3 receptor.
For a further test, the target named is Histamine H1 receptor (Homo sapiens, UniProt P35367). Briefly: Displacement of [3H]pyrilamine from human cloned histamine H1 receptor.
Histamine H1 receptor, sequence (P35367 whole entry): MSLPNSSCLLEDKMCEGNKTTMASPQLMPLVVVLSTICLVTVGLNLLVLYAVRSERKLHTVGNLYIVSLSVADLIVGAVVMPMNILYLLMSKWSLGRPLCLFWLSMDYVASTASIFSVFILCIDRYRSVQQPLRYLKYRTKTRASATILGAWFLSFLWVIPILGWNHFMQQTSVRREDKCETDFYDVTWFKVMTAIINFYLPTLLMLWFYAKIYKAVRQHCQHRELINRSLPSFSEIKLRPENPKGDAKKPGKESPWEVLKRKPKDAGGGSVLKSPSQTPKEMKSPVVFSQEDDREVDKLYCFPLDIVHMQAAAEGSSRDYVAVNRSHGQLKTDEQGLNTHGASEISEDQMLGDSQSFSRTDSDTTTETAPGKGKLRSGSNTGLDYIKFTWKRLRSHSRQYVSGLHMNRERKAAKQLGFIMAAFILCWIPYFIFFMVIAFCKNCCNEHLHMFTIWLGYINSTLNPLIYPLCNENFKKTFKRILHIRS

Sodium-dependent serotonin transporter (Rattus norvegicus), sequence (P31652 whole entry): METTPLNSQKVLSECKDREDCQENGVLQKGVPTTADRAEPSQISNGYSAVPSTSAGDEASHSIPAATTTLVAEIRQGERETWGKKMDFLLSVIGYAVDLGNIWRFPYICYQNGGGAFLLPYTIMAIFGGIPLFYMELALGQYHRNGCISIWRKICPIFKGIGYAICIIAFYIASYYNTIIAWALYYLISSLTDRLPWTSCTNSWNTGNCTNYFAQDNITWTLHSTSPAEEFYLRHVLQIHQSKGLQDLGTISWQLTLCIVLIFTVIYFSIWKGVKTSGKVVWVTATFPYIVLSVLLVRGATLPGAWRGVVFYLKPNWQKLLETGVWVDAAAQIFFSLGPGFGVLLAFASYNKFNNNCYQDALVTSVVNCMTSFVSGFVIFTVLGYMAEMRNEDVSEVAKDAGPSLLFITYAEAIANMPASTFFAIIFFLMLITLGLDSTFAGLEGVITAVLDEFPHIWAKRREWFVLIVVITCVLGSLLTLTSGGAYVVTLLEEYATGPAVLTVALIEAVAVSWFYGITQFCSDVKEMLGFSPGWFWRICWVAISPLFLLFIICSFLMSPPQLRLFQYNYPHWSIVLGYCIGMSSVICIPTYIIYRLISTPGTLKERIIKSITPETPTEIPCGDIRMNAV
Substance-P receptor, sequence (P25103 whole entry): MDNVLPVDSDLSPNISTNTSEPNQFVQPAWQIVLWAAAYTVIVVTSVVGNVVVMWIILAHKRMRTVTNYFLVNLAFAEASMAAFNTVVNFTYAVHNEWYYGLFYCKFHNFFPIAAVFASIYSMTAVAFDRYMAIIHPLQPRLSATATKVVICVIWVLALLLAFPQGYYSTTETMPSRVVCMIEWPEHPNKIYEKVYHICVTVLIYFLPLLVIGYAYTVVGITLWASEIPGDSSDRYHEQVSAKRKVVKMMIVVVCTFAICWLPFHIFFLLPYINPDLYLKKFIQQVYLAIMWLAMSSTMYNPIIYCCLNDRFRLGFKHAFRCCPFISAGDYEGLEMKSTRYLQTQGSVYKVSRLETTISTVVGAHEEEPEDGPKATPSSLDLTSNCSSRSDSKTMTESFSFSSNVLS
D(3) dopamine receptor, sequence (P35462 whole entry): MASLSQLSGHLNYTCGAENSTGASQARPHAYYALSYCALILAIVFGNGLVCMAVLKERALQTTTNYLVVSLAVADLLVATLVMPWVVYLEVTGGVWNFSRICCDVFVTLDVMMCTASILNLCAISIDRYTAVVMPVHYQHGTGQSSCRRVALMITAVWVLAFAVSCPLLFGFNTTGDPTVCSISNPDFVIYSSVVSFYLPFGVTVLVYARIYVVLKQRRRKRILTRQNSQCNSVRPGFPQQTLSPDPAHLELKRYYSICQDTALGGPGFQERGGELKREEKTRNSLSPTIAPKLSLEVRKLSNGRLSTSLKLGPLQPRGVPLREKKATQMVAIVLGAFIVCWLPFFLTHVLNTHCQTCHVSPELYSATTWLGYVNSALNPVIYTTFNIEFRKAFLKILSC
Sodium-dependent dopamine transporter, sequence (P23977 whole entry): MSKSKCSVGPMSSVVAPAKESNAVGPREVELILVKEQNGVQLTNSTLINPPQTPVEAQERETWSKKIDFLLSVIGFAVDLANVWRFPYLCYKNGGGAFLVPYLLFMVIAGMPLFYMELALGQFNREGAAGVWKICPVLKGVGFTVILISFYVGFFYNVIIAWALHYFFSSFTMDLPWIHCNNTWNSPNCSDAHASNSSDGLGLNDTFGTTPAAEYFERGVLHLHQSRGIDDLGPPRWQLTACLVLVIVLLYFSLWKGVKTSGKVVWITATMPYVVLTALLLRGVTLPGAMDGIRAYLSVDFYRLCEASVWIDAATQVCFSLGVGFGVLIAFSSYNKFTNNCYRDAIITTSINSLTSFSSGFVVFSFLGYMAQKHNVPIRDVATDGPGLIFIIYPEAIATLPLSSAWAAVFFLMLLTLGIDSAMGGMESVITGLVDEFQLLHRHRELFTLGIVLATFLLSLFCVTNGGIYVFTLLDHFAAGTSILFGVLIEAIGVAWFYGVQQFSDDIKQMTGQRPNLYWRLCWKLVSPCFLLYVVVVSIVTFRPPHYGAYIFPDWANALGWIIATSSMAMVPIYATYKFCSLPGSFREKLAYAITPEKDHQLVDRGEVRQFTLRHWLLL
Norepinephrine transporter, sequence (Q9WTR4 whole entry): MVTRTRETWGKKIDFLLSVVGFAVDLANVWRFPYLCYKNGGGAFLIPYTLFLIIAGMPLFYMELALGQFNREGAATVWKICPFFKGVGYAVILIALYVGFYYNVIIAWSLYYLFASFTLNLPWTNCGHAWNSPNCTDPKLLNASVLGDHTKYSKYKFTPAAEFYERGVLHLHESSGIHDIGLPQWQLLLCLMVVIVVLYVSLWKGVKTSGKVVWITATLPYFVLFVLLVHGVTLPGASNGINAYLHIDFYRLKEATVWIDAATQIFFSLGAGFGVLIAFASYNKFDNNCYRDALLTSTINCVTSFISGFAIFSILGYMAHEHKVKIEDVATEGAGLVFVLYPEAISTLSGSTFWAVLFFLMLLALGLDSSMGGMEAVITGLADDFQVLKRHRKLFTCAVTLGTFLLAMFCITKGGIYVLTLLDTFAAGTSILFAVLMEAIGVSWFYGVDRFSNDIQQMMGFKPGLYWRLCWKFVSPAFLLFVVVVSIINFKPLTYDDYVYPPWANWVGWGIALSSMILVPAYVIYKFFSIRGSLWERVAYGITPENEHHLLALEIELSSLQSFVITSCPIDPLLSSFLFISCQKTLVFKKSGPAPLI

As to `COc1cc2c(cc1OC)C1=NOC(CN3CCN(C/C=C/c4ccc(F)cc4)CC3)C1CO2` (racemic), the ED50 – broadly, the dose that gives a 50% effect, or the effect in half of the subjects – in test [1] came to 0.1 mg/kg; in test [2] it was 4.7 mg/kg.
As for `COc1cc2c(cc1OC)C1=NO[C@@H](CN3CCN(C/C(C)=C/c4ccc(F)cc4)CC3)[C@@H]1CO2` (stereo in doubt; form 2) [listing 1 of 2 here], the inhibition constant (Ki) (commonly a dissociation constant, usually derived from enzyme kinetics or from competition with a known ligand) in test [3] worked out at 0.028 µM; in [4], 0.01 µM; in [5] it was 0.021 µM.
For `COc1cc2c(cc1OC)C1=NO[C@@H](CN3CCN(C/C(C)=C/c4ccc(F)cc4)CC3)[C@@H]1CO2` (stereo in doubt; form 1) [listing 1 of 2 here], the 50% effective dose (ED50) in test [6] is 4.7 mg/kg; in test [7], 2.6 mg/kg; in [8], over 10 mg/kg; in [9] it was 2.7 mg/kg; in test [10], 7.1 mg/kg; in test [11] it was 1.3 mg/kg. For the same compound, the ED50 amounted to 1.2 mg/kg in test [12]; 25 mg/kg in test [13]; 2.7 mg/kg in test [1]; 1.3 mg/kg in [14]; 9.3 mg/kg in [16]; 3.6 mg/kg in test [17]. Further, the ED50 in [18] was found to be 2.3 mg/kg; in test [19], 8.8 mg/kg; in test [21], 2.7 mg/kg; in test [23], 1 mg/kg; in [25], 4.1 mg/kg. In addition, the result in [15] and in test [20] was inactive. For the same compound, the results for the antagonist dissociation constant (Kb) in [22] and in [24] were 0.0014 µM and 0.00091 µM, respectively.
With `COc1cc2c(cc1OC)C1=NO[C@@H](CN3CCN(C/C(C)=C/c4ccc(F)cc4)CC3)[C@@H]1CO2` (stereo in doubt; form 2) [listing 2 of 2 here], the 50% effective dose (ED50) in [1] was 5 mg/kg.
With `COc1cc2c(cc1OC)C1=NOC(CN3CCN(C/C(C)=C/c4ccccc4)CC3)C1CN2` (racemic), the ED50 is 0.2 mg/kg in test [1] and 2.2 mg/kg in [2].
`COc1cc2c(cc1OC)C1=NOC(CN3CCN(C/C(C)=C/c4ccccc4)CC3)C1CN2` (single isomer, unassigned; (-)): the ED50 was 3.2 mg/kg in test [26]; over 10 mg/kg in test [1]; 0.81 mg/kg in test [27]; over 10 mg/kg in test [14]; 0.32 mg/kg in test [2].
The compound `COc1cc2c(cc1OC)C1=NO[C@@H](CN3CCN(C/C(C)=C/c4ccc(F)cc4)CC3)[C@@H]1CO2` (racemic) gave a Ki in [5] of 0.0084 µM. In other words, the single-digit nanomolar range.
With `COc1cc2c(cc1OC)C1=NO[C@@H](CN3CCN(C/C(C)=C/c4ccc(F)cc4)CC3)[C@@H]1CO2` (stereo in doubt; form 1) [listing 2 of 2 here], the Ki came to 0.583 µM in test [28]; 0.125 µM in [29]; 0.07 µM in [30]; 0.0031 µM in test [3]; 0.00027 µM in test [4]; 0.31 µM on Substance-P receptor. In addition, the Ki at D(3) dopamine receptor is 0.375 µM; at Histamine H1 receptor, 0.074 µM; in [5], 0.0015 µM.
